Legend:
Test in all cases: biochemical
Parameters in all cases: Kinase selectivity panel of 81 human kinases, ADP-Glo or HTRF, per cent inhibition at 1 uM
ALK4 = molecular target: T1, ALK4 (Homo sapiens, UniProt P36896)
T1 construct: gene ACVR1B
How it was run: (§1)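 Kinase-panel selectivity profiling of 81 kinases with compound at 1000 nM.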

BRAF = BRAF (Homo sapiens, UniProt P15056)
How it was run: as §1

BRSK2 = BRSK2 (Homo sapiens, UniProt Q8IWQ3)
How it was run: as §1

CK1γ2 = molecular target: T2, CK1γ2 (Homo sapiens, UniProt P78368)
T2 construct: gene CSNK1G2
How it was run: as §1

EGFR = EGFR (Homo sapiens, UniProt P00533)
How it was run: as §1

EPHB4 = EPHB4 (Homo sapiens, UniProt P54760)
How it was run: as §1

MAP2K1 = MAP2K1 (Homo sapiens, UniProt Q02750)
How it was run: as §1

MAPKAPK2 = MAPKAPK2 (Homo sapiens, UniProt P49137)
How it was run: as §1

PKD2 = molecular target: T3, PKD2 (Homo sapiens, UniProt Q9BZL6)
T3 construct: gene PRKD2
How it was run: as §1

QIK = molecular target: T4, QIK (Homo sapiens, UniProt Q9H0K1)
T4 construct: gene SIK2
How it was run: as §1

RIPK2 = RIPK2 (Homo sapiens, UniProt O43353)
How it was run: as §1

SGK = molecular target: T5, SGK (Homo sapiens, UniProt O00141)
T5 construct: gene SGK1
How it was run: as §1

SRC = SRC (Homo sapiens, UniProt P12931)
How it was run: as §1

TGFβR2 = molecular target: T6, TGFβR2 (Homo sapiens, UniProt P37173)
T6 construct: gene TGFBR2
How it was run: as §1

Sequence of EPHB4 (P54760 whole entry): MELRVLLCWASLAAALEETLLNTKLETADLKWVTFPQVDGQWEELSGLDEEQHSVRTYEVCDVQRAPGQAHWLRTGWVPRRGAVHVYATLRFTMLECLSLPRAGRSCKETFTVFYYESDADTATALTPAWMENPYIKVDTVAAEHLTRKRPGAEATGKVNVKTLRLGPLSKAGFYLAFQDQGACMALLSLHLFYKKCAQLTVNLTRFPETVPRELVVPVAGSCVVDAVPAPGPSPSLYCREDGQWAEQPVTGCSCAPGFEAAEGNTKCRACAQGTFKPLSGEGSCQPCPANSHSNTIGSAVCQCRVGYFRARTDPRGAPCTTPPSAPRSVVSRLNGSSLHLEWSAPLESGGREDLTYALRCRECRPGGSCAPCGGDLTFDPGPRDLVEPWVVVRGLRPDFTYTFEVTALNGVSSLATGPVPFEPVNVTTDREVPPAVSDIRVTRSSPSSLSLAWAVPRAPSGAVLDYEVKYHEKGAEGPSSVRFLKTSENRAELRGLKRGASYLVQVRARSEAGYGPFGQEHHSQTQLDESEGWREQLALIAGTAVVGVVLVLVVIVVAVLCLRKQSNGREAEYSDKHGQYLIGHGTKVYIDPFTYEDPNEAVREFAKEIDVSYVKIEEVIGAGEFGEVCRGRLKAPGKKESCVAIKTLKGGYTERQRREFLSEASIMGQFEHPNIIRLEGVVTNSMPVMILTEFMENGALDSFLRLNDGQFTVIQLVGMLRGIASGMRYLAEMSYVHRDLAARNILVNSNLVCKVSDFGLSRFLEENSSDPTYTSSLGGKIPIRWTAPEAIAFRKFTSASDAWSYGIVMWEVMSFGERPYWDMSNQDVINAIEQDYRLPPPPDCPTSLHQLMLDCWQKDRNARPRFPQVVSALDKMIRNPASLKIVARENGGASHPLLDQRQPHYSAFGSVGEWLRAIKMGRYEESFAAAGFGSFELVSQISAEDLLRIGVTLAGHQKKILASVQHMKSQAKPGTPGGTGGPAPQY
T3 sequence (Q9BZL6 whole entry): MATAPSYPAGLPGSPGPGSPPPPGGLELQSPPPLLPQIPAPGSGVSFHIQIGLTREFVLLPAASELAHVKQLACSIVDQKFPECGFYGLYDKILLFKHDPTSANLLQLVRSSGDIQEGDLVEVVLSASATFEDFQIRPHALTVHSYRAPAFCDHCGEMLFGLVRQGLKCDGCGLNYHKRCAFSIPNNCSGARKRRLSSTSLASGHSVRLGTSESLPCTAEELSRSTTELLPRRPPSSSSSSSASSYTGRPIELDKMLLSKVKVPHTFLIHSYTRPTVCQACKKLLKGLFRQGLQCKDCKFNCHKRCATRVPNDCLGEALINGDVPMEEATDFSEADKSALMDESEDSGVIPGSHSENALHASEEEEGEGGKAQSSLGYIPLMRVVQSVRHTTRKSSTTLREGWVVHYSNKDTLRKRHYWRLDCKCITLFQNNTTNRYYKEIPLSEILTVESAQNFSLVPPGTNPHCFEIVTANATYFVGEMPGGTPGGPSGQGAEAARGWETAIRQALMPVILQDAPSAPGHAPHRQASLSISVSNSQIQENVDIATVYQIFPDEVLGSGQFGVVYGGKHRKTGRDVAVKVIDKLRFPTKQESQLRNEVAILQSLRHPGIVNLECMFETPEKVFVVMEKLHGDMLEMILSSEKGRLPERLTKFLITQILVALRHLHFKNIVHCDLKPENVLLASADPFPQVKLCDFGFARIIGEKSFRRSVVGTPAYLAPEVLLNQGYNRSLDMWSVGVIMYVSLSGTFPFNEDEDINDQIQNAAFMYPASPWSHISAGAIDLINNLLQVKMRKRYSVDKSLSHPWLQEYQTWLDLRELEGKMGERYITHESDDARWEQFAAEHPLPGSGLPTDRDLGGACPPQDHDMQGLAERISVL
T4 sequence (Q9H0K1 whole entry): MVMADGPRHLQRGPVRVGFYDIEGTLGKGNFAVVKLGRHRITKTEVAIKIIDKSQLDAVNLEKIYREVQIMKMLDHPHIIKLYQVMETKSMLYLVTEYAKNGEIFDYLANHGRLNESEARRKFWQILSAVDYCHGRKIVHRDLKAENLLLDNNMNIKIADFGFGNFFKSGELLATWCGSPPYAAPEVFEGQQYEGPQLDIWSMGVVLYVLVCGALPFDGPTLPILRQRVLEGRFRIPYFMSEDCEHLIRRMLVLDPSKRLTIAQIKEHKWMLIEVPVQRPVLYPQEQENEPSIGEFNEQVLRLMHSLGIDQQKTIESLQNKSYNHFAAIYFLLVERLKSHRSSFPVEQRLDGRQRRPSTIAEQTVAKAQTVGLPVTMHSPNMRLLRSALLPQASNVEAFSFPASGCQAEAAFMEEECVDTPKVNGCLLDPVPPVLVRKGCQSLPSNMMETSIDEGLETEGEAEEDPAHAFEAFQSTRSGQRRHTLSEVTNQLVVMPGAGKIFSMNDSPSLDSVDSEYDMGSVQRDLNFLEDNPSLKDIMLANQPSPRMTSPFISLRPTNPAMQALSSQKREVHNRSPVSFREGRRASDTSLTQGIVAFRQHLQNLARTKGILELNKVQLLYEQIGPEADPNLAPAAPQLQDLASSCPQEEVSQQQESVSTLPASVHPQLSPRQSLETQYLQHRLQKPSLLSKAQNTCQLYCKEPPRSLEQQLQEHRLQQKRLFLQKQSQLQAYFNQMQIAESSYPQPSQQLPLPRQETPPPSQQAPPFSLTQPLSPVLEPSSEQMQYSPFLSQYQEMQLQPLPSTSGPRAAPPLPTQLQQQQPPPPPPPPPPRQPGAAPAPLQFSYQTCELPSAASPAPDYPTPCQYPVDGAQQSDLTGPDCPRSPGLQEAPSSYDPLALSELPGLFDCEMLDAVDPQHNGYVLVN
Sequence of BRSK2 (Q8IWQ3 whole entry): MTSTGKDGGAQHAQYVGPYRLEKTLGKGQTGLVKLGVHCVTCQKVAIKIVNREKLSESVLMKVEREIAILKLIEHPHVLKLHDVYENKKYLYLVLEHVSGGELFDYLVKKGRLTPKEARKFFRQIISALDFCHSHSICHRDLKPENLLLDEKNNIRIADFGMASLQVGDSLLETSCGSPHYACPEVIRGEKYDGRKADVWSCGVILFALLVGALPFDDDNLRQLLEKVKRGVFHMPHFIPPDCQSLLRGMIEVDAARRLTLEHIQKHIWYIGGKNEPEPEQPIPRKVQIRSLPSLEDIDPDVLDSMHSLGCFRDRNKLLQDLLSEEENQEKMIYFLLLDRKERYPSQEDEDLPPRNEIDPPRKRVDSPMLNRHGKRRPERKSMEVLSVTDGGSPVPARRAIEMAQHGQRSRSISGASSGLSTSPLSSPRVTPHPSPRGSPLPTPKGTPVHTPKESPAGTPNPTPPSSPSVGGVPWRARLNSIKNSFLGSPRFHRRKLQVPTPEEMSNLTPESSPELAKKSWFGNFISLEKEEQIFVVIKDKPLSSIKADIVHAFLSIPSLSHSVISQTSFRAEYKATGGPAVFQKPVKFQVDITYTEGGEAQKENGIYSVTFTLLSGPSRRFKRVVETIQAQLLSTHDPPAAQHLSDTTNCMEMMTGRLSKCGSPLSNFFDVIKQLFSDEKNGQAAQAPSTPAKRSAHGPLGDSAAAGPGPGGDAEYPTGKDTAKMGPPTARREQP
T1 sequence (P36896 whole entry): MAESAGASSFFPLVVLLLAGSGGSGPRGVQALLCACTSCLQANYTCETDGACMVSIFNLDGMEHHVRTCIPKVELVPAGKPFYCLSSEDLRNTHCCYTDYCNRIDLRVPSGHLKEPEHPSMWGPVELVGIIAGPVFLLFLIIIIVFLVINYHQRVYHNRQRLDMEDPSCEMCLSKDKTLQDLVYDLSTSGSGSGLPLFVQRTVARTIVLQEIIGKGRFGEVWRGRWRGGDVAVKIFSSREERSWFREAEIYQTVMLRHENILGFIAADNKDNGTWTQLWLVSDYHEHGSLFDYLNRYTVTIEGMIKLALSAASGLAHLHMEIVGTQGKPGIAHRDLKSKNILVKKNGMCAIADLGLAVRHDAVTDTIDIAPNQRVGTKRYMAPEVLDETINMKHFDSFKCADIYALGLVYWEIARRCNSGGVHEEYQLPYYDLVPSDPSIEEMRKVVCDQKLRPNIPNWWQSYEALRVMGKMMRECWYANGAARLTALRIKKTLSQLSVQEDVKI
T2 sequence (P78368 whole entry): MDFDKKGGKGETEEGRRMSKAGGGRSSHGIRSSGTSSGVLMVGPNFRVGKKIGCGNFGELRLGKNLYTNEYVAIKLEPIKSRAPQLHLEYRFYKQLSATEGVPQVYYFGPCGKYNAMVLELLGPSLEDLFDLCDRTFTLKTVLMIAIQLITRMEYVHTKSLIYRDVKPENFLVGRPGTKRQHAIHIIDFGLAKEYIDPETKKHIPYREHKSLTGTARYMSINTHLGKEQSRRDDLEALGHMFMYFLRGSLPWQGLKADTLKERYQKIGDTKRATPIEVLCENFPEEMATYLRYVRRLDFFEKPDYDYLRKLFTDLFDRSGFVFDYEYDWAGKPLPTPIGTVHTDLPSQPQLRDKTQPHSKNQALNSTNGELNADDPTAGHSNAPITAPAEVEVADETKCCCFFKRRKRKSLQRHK
Sequence of MAPKAPK2 (P49137 whole entry): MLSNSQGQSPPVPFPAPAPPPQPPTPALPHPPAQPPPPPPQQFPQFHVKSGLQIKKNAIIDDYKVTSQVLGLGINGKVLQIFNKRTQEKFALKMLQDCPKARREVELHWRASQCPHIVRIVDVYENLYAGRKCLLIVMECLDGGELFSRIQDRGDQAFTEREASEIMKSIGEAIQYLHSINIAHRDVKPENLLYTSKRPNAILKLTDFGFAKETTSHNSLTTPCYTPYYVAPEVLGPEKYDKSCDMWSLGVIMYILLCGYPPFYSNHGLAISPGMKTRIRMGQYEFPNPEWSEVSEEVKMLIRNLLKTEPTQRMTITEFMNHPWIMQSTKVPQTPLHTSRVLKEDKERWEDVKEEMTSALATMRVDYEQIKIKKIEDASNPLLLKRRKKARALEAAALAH

- inhibition at 1 µM (ALK4; replicate Data1): -1.47%
- inhibition at 1 µM (ALK4; replicate Data2): -2.74%
- inhibition at 1 µM (BRAF; replicate Data1): 6.11%
- inhibition at 1 µM (BRAF; replicate Data2): -8.57%
- inhibition at 1 µM (BRSK2; replicate Data1): -6.15%
- inhibition at 1 µM (BRSK2; replicate Data2): -3.32%
- inhibition at 1 µM (CK1γ2; replicate Data1): -3.03%
- inhibition at 1 µM (CK1γ2; replicate Data2): 8.14%
- inhibition at 1 µM (EGFR; replicate Data1): -2.16%
- inhibition at 1 µM (EGFR; replicate Data2): -4.3%
- inhibition at 1 µM (EPHB4; replicate Data1): 1.63%
- inhibition at 1 µM (EPHB4; replicate Data2): -4.43%
- inhibition at 1 µM (MAP2K1; replicate Data1): -8.67%
- inhibition at 1 µM (MAP2K1; replicate Data2): 0.16%
- inhibition at 1 µM (MAPKAPK2; replicate Data1): -3.5%
- inhibition at 1 µM (MAPKAPK2; replicate Data2): -31.8%
- inhibition at 1 µM (PKD2; replicate Data1): 12%
- inhibition at 1 µM (PKD2; replicate Data2): 6.79%
- inhibition at 1 µM (QIK; replicate Data1): 9.18%
- inhibition at 1 µM (QIK; replicate Data2): 2.94%
- inhibition at 1 µM (RIPK2; replicate Data1): -0.35%
- inhibition at 1 µM (RIPK2; replicate Data2): -3.05%
- inhibition at 1 µM (SGK; replicate Data1): 2.39%
- inhibition at 1 µM (SGK; replicate Data2): 0.81%
- inhibition at 1 µM (SRC; replicate Data1): -5.44%
- inhibition at 1 µM (SRC; replicate Data2): -0.43%
- inhibition at 1 µM (TGFβR2; replicate Data1): 7.99%
- inhibition at 1 µM (TGFβR2; replicate Data2): 3.92%
SMILES: Nc1cn2cc(-c3cnc4c(c3)N(C(=O)OC3CCCCC3)CCO4)ccc2n1 [Zharp1-163]

Reference: article PMC12394658, “Discovery of Zharp1-163 as a dual inhibitor of ferroptosis and necroptosis for the treatment of inflammatory disorders and kidney injury” (Cell Death Discovery, 2025)
